Measured values: US20160355530A1, “HEPATITIS C INHIBITORS AND USES THEREOF” (AbbVie Inc., priority 2010, published 2016)
Where two headings read alike, the source gives them in different places.

What was measured:
[1] = molecular target: T1, HCV NS5B polymerase 1b BK strain (Hepatitis C virus genotype 1b, UniProt P26663); assay: HCV NS5B polymerase enzymatic inhibition assay, strain 1b BK; type: biochemical; settings: enzyme, strain 1b BK; read-out: HCV Polymerase Strain 1b BK IC50
T1 construct: six-histidine tag; made in house; host or cells: E. coli
T1 sequence (P26663 2420-2989): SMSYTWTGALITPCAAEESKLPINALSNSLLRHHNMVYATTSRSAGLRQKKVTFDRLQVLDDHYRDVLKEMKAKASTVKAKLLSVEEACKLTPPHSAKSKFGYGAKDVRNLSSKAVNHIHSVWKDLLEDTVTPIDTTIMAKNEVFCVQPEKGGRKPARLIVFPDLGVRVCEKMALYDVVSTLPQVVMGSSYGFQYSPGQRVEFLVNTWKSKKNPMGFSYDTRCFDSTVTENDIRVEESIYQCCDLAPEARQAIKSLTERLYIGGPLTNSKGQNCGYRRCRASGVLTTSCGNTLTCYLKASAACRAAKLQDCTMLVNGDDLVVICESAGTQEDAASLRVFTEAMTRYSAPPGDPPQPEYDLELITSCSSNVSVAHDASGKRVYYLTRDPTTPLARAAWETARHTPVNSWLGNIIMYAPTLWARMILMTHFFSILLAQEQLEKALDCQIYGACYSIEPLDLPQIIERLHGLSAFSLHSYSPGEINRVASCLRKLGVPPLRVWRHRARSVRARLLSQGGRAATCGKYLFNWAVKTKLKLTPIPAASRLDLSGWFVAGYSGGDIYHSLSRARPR
How it was run: (§1)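 E. coli-expressed NS5B (residues 1-570, His-tagged) transcribed a 2.1 kb HCV 1b negative-strand 3′-end RNA template (5 nM) with 20 μM CTP, 20 μM ATP and 0.284 μM [3H]UTP for 3 h at 30° C. Spermine-precipitated RNA was filter-captured and counted by scintillation; IC50 from nonlinear regression.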

[2] = tested on: HCV 1a-H77 transient subgenomic replicon in Huh-7 derived cell line; assay: microbe, parasite or virus in culture; type: cell-based, HCV genotype 1a; settings: Hepatitis C virus, Huh-7; transient replicon, 5% FBS; read-out: Transient Replicon 1a H77 5% FBS EC50
How it was run: (§2)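 Subgenomic replicon RNA (no Neo gene) electroporated into Huh-7-derived cells, plated at 5×10^3 cells/well; a 4 h plate gauged transfection efficiency. Cells exposed to 3-fold compound dilutions (0.5% DMSO) for 4 days at 37° C, then lysed for luciferase readout; EC50 calculated.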

[3] = tested on: HCV 1a-H77-C316Y transient subgenomic replicon in Huh-7 derived cell line; assay: microbe, parasite or virus in culture; type: cell-based, HCV genotype 1a; settings: for EC50: Hepatitis C virus, Huh-7, read-out: Transient Replicon 1a H77-C316Y 5% FBS EC50; for Transient Replicon Fold Resistance C316Y/1a: ratio of transient replicon EC50s, C316Y / 1a H77
How it was run: as §2

[4] = tested on: chimeric replicon with genotype 2b NS5B; assay: microbe, parasite or virus in culture; type: cell-based, HCV genotype 2b; settings: Hepatitis C virus, read-out: 2b chimera 5% FBS EC50
[5] = tested on: HCV 1a-H77 subgenomic replicon; assay: microbe, parasite or virus in culture; type: cell-based, HCV genotype 1a; settings: Hepatitis C virus, stable replicon
[6] = molecular target: T2, HCV NS5B polymerase 1a-H77 (Hepatitis C virus genotype 1a, UniProt P27958); assay: biochemical; design: species or system HCV genotype 1a; settings: enzyme, strain 1a H77; read-out: HCV Polymerase Strain 1a H77 IC50
T2 construct: six-histidine tag; made in house; host or cells: E. coli
T2 sequence (P27958 2421-2990): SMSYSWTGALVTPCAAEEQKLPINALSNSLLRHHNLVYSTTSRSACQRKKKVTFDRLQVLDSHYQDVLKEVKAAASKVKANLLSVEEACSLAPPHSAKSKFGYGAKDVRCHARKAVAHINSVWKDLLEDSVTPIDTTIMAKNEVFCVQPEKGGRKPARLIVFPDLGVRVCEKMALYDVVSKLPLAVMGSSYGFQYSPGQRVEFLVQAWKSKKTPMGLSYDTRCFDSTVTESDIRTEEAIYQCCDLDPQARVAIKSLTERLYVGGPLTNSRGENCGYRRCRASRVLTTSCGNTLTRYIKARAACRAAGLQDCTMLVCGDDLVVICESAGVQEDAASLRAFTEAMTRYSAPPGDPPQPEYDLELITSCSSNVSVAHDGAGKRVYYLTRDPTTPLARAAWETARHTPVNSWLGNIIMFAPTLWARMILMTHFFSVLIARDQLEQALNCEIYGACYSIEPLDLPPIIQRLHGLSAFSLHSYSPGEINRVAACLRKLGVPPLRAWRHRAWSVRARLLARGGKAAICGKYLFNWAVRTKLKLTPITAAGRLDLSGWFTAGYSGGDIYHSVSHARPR
How it was run: as §1

[7] = tested on: HCV NS5B polymerase 1a-H77-C316Y; assay: biochemical; design: species or system HCV genotype 1a; settings: ratio of enzyme IC50s, 1a H77-C316Y / 1a H77
How it was run: as §1

[8] = molecular target: T3, HCV NS5B polymerase 1a-H77-C316Y (Hepatitis C virus genotype 1a, UniProt P27958, C2736Y); assay: biochemical; design: species or system HCV genotype 1a
T3 construct: six-histidine tag; made in house; host or cells: E. coli
T3 sequence (P27958 2421-2990 C2736Y): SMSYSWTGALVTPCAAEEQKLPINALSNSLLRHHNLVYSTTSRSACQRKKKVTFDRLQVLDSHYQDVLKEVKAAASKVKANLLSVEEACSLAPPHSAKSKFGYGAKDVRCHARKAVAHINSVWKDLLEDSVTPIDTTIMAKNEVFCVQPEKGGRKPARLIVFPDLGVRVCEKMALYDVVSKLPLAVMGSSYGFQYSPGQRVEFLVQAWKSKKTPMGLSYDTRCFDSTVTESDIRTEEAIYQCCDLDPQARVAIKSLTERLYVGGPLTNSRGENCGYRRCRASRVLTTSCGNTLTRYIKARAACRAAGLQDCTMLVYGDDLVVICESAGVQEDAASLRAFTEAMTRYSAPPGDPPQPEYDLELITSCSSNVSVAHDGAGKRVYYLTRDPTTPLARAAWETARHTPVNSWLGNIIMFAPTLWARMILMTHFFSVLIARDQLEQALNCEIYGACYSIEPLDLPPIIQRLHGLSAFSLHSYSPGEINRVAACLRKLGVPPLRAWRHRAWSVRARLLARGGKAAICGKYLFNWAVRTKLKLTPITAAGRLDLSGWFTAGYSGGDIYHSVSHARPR
How it was run: as §1

[9] = tested on: HCV 1b-BB7 subgenomic replicon; assay: microbe, parasite or virus in culture; type: cell-based, HCV genotype 1b; settings: Hepatitis C virus, stable replicon
[10] = tested on: chimeric replicon with genotype 3a NS5B; assay: microbe, parasite or virus in culture; type: cell-based, HCV genotype 3a; settings: Hepatitis C virus, read-out: 3a chimera 5% FBS EC50
[11] = tested on: chimeric replicon with 2a-J6CF-derived NS5B; assay: microbe, parasite or virus in culture; type: cell-based, HCV genotype 2a; settings: Hepatitis C virus, read-out: 2a chimera 5% FBS EC50
[12] = tested on: chimeric replicon with genotype 4a NS5B; assay: microbe, parasite or virus in culture; type: cell-based, HCV genotype 4a; settings: Hepatitis C virus, read-out: 4a chimera 5% FBS EC50
[13] = 5% FBS, absence of human plasma, read-out: Stable Replicon 1a H77 5% FBS EC50
[14] = strain 1a H77, 5% FBS + 40% human plasma, read-out: 1a H77 5% FBS + 40% Human Plasma EC50
[15] = strain 1a H77, 5% FBS, no human plasma, read-out: 1a H77 5% FBS EC50
[16] = strain 1a H77, 5% FBS, read-out: 1a H77 5% FBS EC50
[17] = strain 1b BB7, 5% FBS + 40% human plasma, read-out: 1b BB7 5% FBS + 40% Human Plasma EC50
[18] = strain 1b BB7, 5% FBS, no human plasma, read-out: 1b BB7 5% FBS EC50
[19] = strain 1b BB7, 5% FBS, read-out: 1b BB7 5% FBS EC50

Row | SMILES | IC50 [1] [µM] | EC50 [2] [µM] | EC50 [3] [µM] | Transient Replicon Fold Resistance C316Y/1a [3] [fold] | EC50 [4] [µM] | EC50 [5, 13] [µM] | EC50 [5, 14] [µM] | EC50 [5, 15] [µM] | EC50 [5, 16] [µM] | IC50 [6] [µM] | C316Y/1a Fold Resistance [7] [fold] | IC50 [8] [µM] | EC50 [9, 17] [µM] | EC50 [9, 18] [µM] | EC50 [9, 19] [µM] | EC50 [10] [µM] | EC50 [11] [µM] | EC50 [12] [µM]
1 | CS(=O)(=O)CCN(c1cc2oc(-c3ccc(F)cc3)c(-c3ncc[nH]3)c2cc1C1CC1)S(C)(=O)=O [Example 87, N-[5-cyclopropyl-2-(4-fluorophenyl)-3-(1H-imidazol-2-yl)-1-benzofuran-6-yl]-N-[2-(methylsulfonyl)ethyl]methanesulfonamide] | 0.023 | 0.0061 | 0.155 | 25 | 0.0849 | 0.0076 | 0.065 | 0.0076 | 0.0076 | 0.006 | 26 | 0.156 | 0.057 | 0.0049 | 0.0049 | 0.0032 | 0.0645 | 0.0484
2 | CS(=O)(=O)N(CCCCCO)c1cc2oc(-c3ccc(F)cc3)c(-c3ncc[nH]3)c2cc1C1CC1 [Example 88, N-[5-cyclopropyl-2-(4-fluorophenyl)-3-(1H-imidazol-2-yl)-1-benzofuran-6-yl]-N-(5-hydroxypentyl)methanesulfonamide] | 0.009 | 0.0012 | 0.0382 | 32 | 0.0245 | 0.0041 | 0.119 | 0.0041 | 0.0041 | 0.004 | 12 | 0.046 | 0.108 | 0.0049 | 0.0049 | 0.0032 | 0.0253 | 0.0339
3 | CS(=O)(=O)N(CCCS(=O)(=O)c1ccccc1)c1cc2oc(-c3ccc(F)cc3)c(-c3ncc[nH]3)c2cc1C1CC1 [Example 90, N-[5-cyclopropyl-2-(4-fluorophenyl)-3-(1H-imidazol-2-yl)-1-benzofuran-6-yl]-N-[3-(phenylsulfonyl)propyl]methanesulfonamide] | 0.01 | 0.0027 | 0.0658 | 24 | 0.068 | 0.0102 | 0.093 | 0.0102 | 0.0102 | 0.0035 | 12 | 0.042 | 0.048 | 0.006 | 0.006 | 0.0128 | 0.0475 | 0.0275
4 | CS(=O)(=O)N(CCCCC(N)=O)c1cc2oc(-c3ccc(F)cc3)c(-c3ncc[nH]3)c2cc1C1CC1 [Example 91, 5-{[5-cyclopropyl-2-(4-fluorophenyl)-3-(1H-imidazol-2-yl)-1-benzofuran-6-yl](methylsulfonyl)amino}pentanamide] | 0.026 | 0.0056 | 0.121 | 22 | 0.0994 | 0.0063 | 0.032 | 0.0063 | 0.00634 | 0.0053 | 15 | 0.08 | 0.034 | 0.0049 | 0.0049 | 0.008 | 0.0858 | 0.0888
5 | CS(=O)(=O)N(CCCCC(=O)O)c1cc2oc(-c3ccc(F)cc3)c(-c3ncc[nH]3)c2cc1C1CC1 [Example 92, 5-{[5-cyclopropyl-2-(4-fluorophenyl)-3-(1H-imidazol-2-yl)-1-benzofuran-6-yl](methylsulfonyl)amino}pentanoic acid] | 0.006 | 0.0194 | 0.48 | 25 | 0.352 | 0.0214 | 0.175 | 0.0214 | 0.0214 | 0.0049 | 9 | 0.043 | 0.142 | 0.0259 | 0.0259 | 0.043 | 0.409 | 0.283
6 | CCS(=O)(=O)CCN(c1cc2oc(-c3ccc(F)cc3)c(-c3ncc[nH]3)c2cc1C1CC1)S(C)(=O)=O [Example 96, N-[5-cyclopropyl-2-(4-fluorophenyl)-3-(1H-imidazol-2-yl)-1-benzofuran-6-yl]-N-[2-(ethylsulfonyl)ethyl]methanesulfonamide] | 0.034 | 0.0011 | 0.0806 | 73 | 0.126 | 0.0063 | 0.058 | 0.0062 | 0.0063 | 0.0089 | 6 | 0.058 | 0.037 | 0.004 | 0.004 | 0.0059 | 0.0437 | 0.0419
7 | CC(C)(O)CCCN(c1cc2oc(-c3ccc(F)cc3)c(-c3ncc[nH]3)c2cc1C1CC1)S(C)(=O)=O [Example 99, N-[5-cyclopropyl-2-(4-fluorophenyl)-3-(1H-imidazol-2-yl)-1-benzofuran-6-yl]-N-(4-hydroxy-4-methylpentyl)methanesulfonamide] | 0.011 | 0.0076 | 0.0854 | 11 | 0.0173 | 0.0077 | 0.126 | 0.0077 | 0.0077 | 0.0045 | 13 | 0.058 | 0.105 | 0.0054 | 0.0054 | 0.0038 | 0.0296 | 0.0314
8 | CC(O)CCCN(c1cc2oc(-c3ccc(F)cc3)c(-c3ncc[nH]3)c2cc1C1CC1)S(C)(=O)=O (stereo not drawn) [Example 100, N-[5-cyclopropyl-2-(4-fluorophenyl)-3-(1H-imidazol-2-yl)-1-benzofuran-6-yl]-N-(4-hydroxypentyl)methanesulfonamide] | 0.008 | 0.0042 | 0.0891 | 21 | 0.0163 | 0.006 | 0.088 | 0.006 | 0.006 | 0.0035 | 15 | 0.053 | 0.057 | 0.0034 | 0.0034 | 0.0031 | 0.0198 | 0.0216
9 | CS(=O)(=O)CCCN(c1cc2oc(-c3ccc(F)cc3)c(-c3ncc[nH]3)c2cc1C1CC1)S(C)(=O)=O [Example 101, N-[5-cyclopropyl-2-(4-fluorophenyl)-3-(1H-imidazol-2-yl)-1-benzofuran-6-yl]-N-[3-(methylsulfonyl)propyl]methanesulfonamide] | 0.011 | 0.0037 | 0.102 | 28 | 0.0334 | 0.0041 | 0.11 | 0.0041 | 0.00412 | 0.005 | 9 | 0.046 | 0.075 | 0.0059 | 0.0059 | 0.0043 | 0.033 | 0.0564
